According to patent publication US20240293401A1, “COMBINATION THERAPY WITH AN LXR AGONIST AND AN INHIBITOR COMPOUND” (Asteroid Therapeutics, priority 2023, published 2024):

Tests used:
[1] = tested on: glioblastoma, prostate cancer, and breast cancer cells; details: cited from earlier work
[2] = tested on: β-cells; details: cited from earlier work
[3] = Mouse study: liver triglycerides after 5 days of daily dosing; format: in vivo, mice; details: for Average liver trig: daily for 5 days, 4 hours post dose on day 5
Procedure: (§1) Mice were dosed daily with either: • a. the LXR agonist GW3965 orally at specified concentrations for 5-days, • b. the LXR inverse agonist SR9238 intraperitoneally at specified concentrations for 5-days, or • c. both drugs simultaneously at specified concentrations for 5-days.
(§2) Four hours after the final treatment on day 5, mice were euthanized and tissues were collected.

[4] = tested on: Abca1; experiment: Mouse study: expression of the LXR target gene Abca1 in the brain after 5 days of daily dosing; format: in vivo, mice; details: for Average ABCA1 FC vs. vehicle (brain): daily for 5 days, 4 hours post dose on day 5
Procedure: as §1, §2

[5] = SR9238 30 mg/kg intraperitoneally
[6] = SR9238 60 mg/kg intraperitoneally

In the case of CC(C)[C@@H](O)CC[C@@H](C)[C@H]1CC[C@H]2[C@@H]3CC=C4C[C@@H](O)CC[C@]4(C)[C@H]3CC[C@]12C [24(S)-hydroxycholesterol], the “proliferation of glioblastoma, prostate cancer, and breast cancer cells (in words)” value [1] is listed as “suppress the proliferation”.

In the case of CC(C)CC[C@@H](O)[C@@H](C)[C@H]1CC[C@H]2[C@@H]3CC=C4C[C@@H](O)CC[C@]4(C)[C@H]3CC[C@]12C [22(R)-hydroxycholesterol], the “proliferation of glioblastoma, prostate cancer, and breast cancer cells (in words)” value [1] is listed as “suppress the proliferation”.

For O=S(=O)(c1ccccc1)N(CC(F)(F)F)c1ccc(C(O)(C(F)(F)F)C(F)(F)F)cc1 [T0901317], the “effect on β-cells (in words)” value [2] is given as “interfere with mitochondrial metabolism and metabolism-independent processes in β-cells”.

In the case of O=C(O)Cc1cccc(OCCCN(Cc2cccc(C(F)(F)F)c2Cl)CC(c2ccccc2)c2ccccc2)c1 [GW-3965], the “effect on β-cells (in words)” value [2] is listed as “interfere with mitochondrial metabolism and metabolism-independent processes in β-cells”, the Average liver trig ([3]; GW-3965 15 mg/kg orally) is listed as 16.3 mg/g and the Average liver trig ([3]; GW-3965 30 mg/kg orally) is listed as 18.4 mg/g. For the same molecule, the Average liver trig ([3]; GW-3965 60 mg/kg orally) was 29.2 mg/g, the “liver triglyceride concentrations (in words)” value ([3]; GW-3965 alone, 5 days of daily treatment) was “increased liver triglyceride concentrations” and the “Average ABCA1 FC vs. vehicle (brain)” value ([4]; GW-3965 15 mg/kg orally) was 1.6. The “Average ABCA1 FC vs. vehicle (brain)” value ([4]; GW-3965 30 mg/kg orally) was 2.0, the “Average ABCA1 FC vs. vehicle (brain)” value ([4]; GW-3965 60 mg/kg orally) was 2.8 and the “expression of the LXR target gene Abca1 (in words)” value ([4]; GW-3965 alone, 5 days of daily treatment, brains of mice) was “increased expression”.

In the case of CCOC(=O)c1ccc(CN(Cc2ccc(-c3cccc(S(C)(=O)=O)c3)cc2)S(=O)(=O)c2c(C)cc(C)cc2C)o1 [SR9238], the Average liver trig [3, 5] is reported as 7.78 mg/g, the Average liver trig [3, 6] is reported as 8.4 mg/g and the “Average ABCA1 FC vs. vehicle (brain)” value [4, 5] is reported as 0.9. For the same molecule, the “Average ABCA1 FC vs. vehicle (brain)” value [4, 6] was 1.2.
